This note sets out measurements from ChEMBL document CHEMBL1201862, “PubChem BioAssay data set” (2004).

The term GI50 denotes the concentration at which growth is held to half of that of the control.

Test systems include A549; ACHN; BT-549; HCT-116; HL-60; NCI-H226; NCI-H23; NCI-H522; NCI/ADR-RES; OVCAR-8; RPMI-8226; RXF 393; SF-539; SK-MEL-28; SK-OV-3; SNB-75; SR; TK-10; U-251; UACC-257.
Common to all, as to assay: DTP human tumour cell line panel, 48 h

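The compound was tested at five concentrations on cells cultured in 96-well plates, with a 48-hour exposure period. Here, GI50 denotes the concentration required for 50% inhibition of growth.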 The source made the active and inactive calls. Rule as the data show it: active = GI50 up to about 1.1 µM and inactive = higher. Some results are limits rather than exact numbers.

Take `C=C1COC(O)(C2OCOC(C3CC(=O)NC(=O)C3)C2O)C1C` (configuration not stated): the concentration for 50% growth inhibition (GI50) with A549 was 0.00221 µM (active); with ACHN it was 0.00533 µM (active); in the assay on BT-549 it was 0.00565 µM (active); in the assay with HCT-116 it was 0.00348 µM (active); in the assay on HL-60, 0.00303 µM (active); with NCI-H226 it was 0.00619 µM (active). The 50% growth inhibitory concentration (GI50) is 0.00381 µM (active) in the assay with NCI-H23; 0.000716 µM (active) in the assay with NCI-H522; 0.017 µM (active) with NCI/ADR-RES; 0.00512 µM (active) in the assay on OVCAR-8; 0.00269 µM (active) in the assay with RPMI-8226; 0.00404 µM (active) in the assay with RXF 393. Moreover, the GI50 in the assay with SF-539 was 0.00185 µM (active); with SK-MEL-28, 0.00573 µM (active); in the assay with SK-OV-3, 0.00384 µM (active); in the assay on SNB-75 it was 0.00494 µM (active); in the assay on SR it was 0.00213 µM (active); in the assay on TK-10, 0.00895 µM (active). Further, the GI50 in the assay with U-251 was 0.00341 µM (active); in the assay on UACC-257, 0.00802 µM (active).
Turning to `COc1cc2ccc(C(C)NCC#N)cc2cc1OC` (configuration not stated), the GI50 was > 100 µM (inactive) in the assay with A549; > 100 µM (inactive) in the assay on ACHN; > 100 µM (inactive) with BT-549; > 100 µM (inactive) in the assay with HCT-116; 46.5 µM (inactive) in the assay with HL-60; > 100 µM (inactive) with NCI-H226. Also, the GI50 in the assay on NCI-H522, with NCI/ADR-RES, with OVCAR-8, in the assay with RPMI-8226, in the assay on RXF 393 and in the assay on SF-539 was > 100 µM (inactive) in each case. Besides, the GI50 in the assay with SK-MEL-28 was > 100 µM (inactive); in the assay with SK-OV-3 it was > 100 µM (inactive); in the assay with SNB-75, > 100 µM (inactive); with SR it was 28.1 µM (inactive); with TK-10, > 100 µM (inactive); with U-251, > 100 µM (inactive). In the assay on UACC-257, the GI50 is > 100 µM (inactive).
Consider `COc1ccc(OC)c(C[P+](c2ccccc2)(c2ccccc2)c2ccccc2)c1`, for which the GI50 is 3.56 µM (inactive) with A549; 4.8 µM (inactive) with ACHN; 2.06 µM (inactive) in the assay on BT-549; 1.02 µM (active) in the assay on HCT-116; 0.434 µM (active) in the assay with HL-60; 4.84 µM (inactive) in the assay with NCI-H226. Moreover, the GI50 is 2.1 µM (inactive) in the assay with NCI-H23; 9.23 µM (inactive) with NCI-H522; > 100 µM (inactive) in the assay on NCI/ADR-RES; 2.08 µM (inactive) in the assay with OVCAR-8; 0.33 µM (active) in the assay with RPMI-8226; 4.68 µM (inactive) in the assay with RXF 393. Also, the GI50 in the assay with SF-539 was 3.82 µM (inactive); in the assay on SK-MEL-28 it was 3.26 µM (inactive); in the assay with SK-OV-3, 2.58 µM (inactive); in the assay on SNB-75, 3.71 µM (inactive); in the assay on SR it was 0.601 µM (active); in the assay with TK-10, 2.7 µM (inactive). Moreover, the concentration for 50% growth inhibition (GI50) in the assay with UACC-257 is 0.656 µM (active).
Consider `CCC(=O)Nc1cccc(/N=C/c2ccc(OC(=O)/C=C\c3ccccc3)cc2)c1`, for which the GI50 was 54 µM (inactive) with A549; 39 µM (inactive) in the assay with ACHN; 37 µM (inactive) with BT-549; > 75 µM (inactive) in the assay on HCT-116; > 75 µM (inactive) in the assay on HL-60; 33.6 µM (inactive) with NCI-H226. Besides, the GI50 in the assay with NCI-H23 was > 75 µM (inactive); in the assay with NCI-H522, 33.7 µM (inactive); with NCI/ADR-RES, > 75 µM (inactive); in the assay on OVCAR-8 it was > 75 µM (inactive); in the assay on RPMI-8226, 43.8 µM (inactive); with RXF 393, 12.2 µM (inactive). Also, the GI50 is 14.8 µM (inactive) in the assay on SF-539; 61.4 µM (inactive) in the assay on SK-MEL-28; > 75 µM (inactive) in the assay on SK-OV-3; 12.3 µM (inactive) in the assay with SNB-75; 54.7 µM (inactive) with SR; > 75 µM (inactive) in the assay with TK-10. Moreover, in the assay with UACC-257, the GI50 is > 75 µM (inactive).
